Test results from US6030643A, “Potassium, sodium and tris oxaprozin salt pharmaceutical formulations” (priority 1997, dated 2000).
Structures can show the parent of a compound that is named as a salt. Where two headings read alike, the source gives them in different places.

What was measured:
[1] = Solubility of oxaprozin and its salts; format: physicochemical
Light sensitivity = format: physicochemical

Row | Structure (SMILES) | solubility [1] [mg/mL] | solubility ([1]; read-out: Solubility) [mg/mL] | Photosensitivity (Light sensitivity)
1 | O=C(O)CCc1nc(-c2ccccc2)c(-c2ccccc2)o1 [TRIS salt of oxaprozin, 4,5-diphenyl-2-oxazolepropanoic acid, tris(hydroxymethyl)aminomethanesalt] | 380 |  | 
2 | O=C([O-])CCc1nc(-c2ccccc2)c(-c2ccccc2)o1.[Na+] [sodium salt of oxaprozin, 4,5-diphenyl-2-oxazolepropanoic acid, sodium salt] |  | 260 | 
3 | O=C(O)CCc1nc(-c2ccccc2)c(-c2ccccc2)o1 [oxaprozin, 4,5-diphenyl-2-oxazolepropionic acid] | 1.7 |  | 
4 | O=C([O-])CCc1nc(-c2ccccc2)c(-c2ccccc2)o1.[K+] [potassium salt of oxaprozin, 4,5-diphenyl-2-oxazolepropanoic acid, potassium salt] |  | 370 | photosensitive material
